Laboratory results published in patent US20190225650A1, “PEPTIDOMIMETIC MACROCYCLES AND USE THEREOF IN REGULATING HIF1ALPHA” (AILERON THERAPEUTICS, INC., priority 2013, published 2019).
Bridge positions count the residues as written; N and C are the ends. Square brackets hold non-standard residues; d marks the D form. Peptide text beside a SMILES is read from it. R8 = C=CCCCCCC[C@@](C)(N)C(=O)O; S5 = C=CCCC[C@](C)(N)C(=O)O; Nle = CCCC[C@H](N)C(=O)O

B1: SP-9 (peptide)
peptide: Ac-AIDEEVL[Nle][S5]LVI[S5][Nle]ALDRI-NH2
modifications: staple 9-13
SMILES: CCCC[C@H](NC(=O)[C@H](CC(C)C)NC(=O)[C@@H](NC(=O)[C@H](CCC(=O)O)NC(=O)[C@H](CCC(=O)O)NC(=O)[C@H](CC(=O)O)NC(=O)[C@@H](NC(=O)[C@H](C)NC(C)=O)[C@@H](C)CC)C(C)C)C(=O)N[C@@]1(C)CCCC=CCCC[C@@](C)(C(=O)N[C@@H](CCCC)C(=O)N[C@@H](C)C(=O)N[C@@H](CC(C)C)C(=O)N[C@@H](CC(=O)O)C(=O)N[C@@H](CCCNC(=N)N)C(=O)N[C@H](C(N)=O)[C@@H](C)CC)NC(=O)[C@H]([C@@H](C)CC)NC(=O)[C@H](C(C)C)NC(=O)[C@H](CC(C)C)NC1=O

Legend:
[1] = target: T1, flag-tagged HIF1α (AA 786-826) / His6-tagged p300 (AA 323-423) complex (Homo sapiens, UniProt Q09472); assay: HIF1α p300 displacement assay (TR FRET, +CHAPS); assay type: binding; conditions: read-out: IC50 (nM) (HIF1α_p300 Displacement + CHAPS)
T1 construct: His6-tagged p300 (AA 323-423); made in house; host or cells: E. coli (pETDuet vector)
Method in brief: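 The co-expressed flag-HIF1α (786-826)/His6-p300 (323-423) complex, purified from E. coli with 0.1 mM ZnSO4, was used at 300 nM final with competitor peptides for 1 h at room temperature. Buffer was 150 mM NaCl, 20 mM HEPES pH 7.4, 7.5 mM CHAPS and 1 mM DTT. Anti-Flag-K (0.5 μM) and anti-His-D2 (4 nM) were then added for 2 h, and IC50s were fitted from the TR-FRET ratio.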

HRE-bla ME-180 cells [2] = assay: Cell proliferation assay (viability, MTT, 1% FBS); assay type: cell-based, human
Method in brief: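 ME-180 cells (2×10^4/well) in Opti-MEM with 1% FBS were pretreated 16 h under normoxia (21% O2), vehicle 0.5% DMSO final. Incubation then continued under normoxia or hypoxia (1% O2); viable cells quantified by MTT-type CellTiter 96 assay.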

HRE-bla ME-180 cells [3] = assay: Reporter gene assay (HRE-bla ME-180 HIF reporter, GeneBLAzer); assay type: cell-based, human; conditions: for EC50: 24 hour normoxia
Method in brief: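 A FRET β-lactamase readout of HIF transcription was used. After compound treatment in 0.3% DMSO/media under normoxic conditions, 20 μl of 6× LiveBLAzer-FRET B/G (CCF4-AM) substrate was added. Plates sat 3 hr at room temperature in the dark and were read at 409 Ex/460Em and 409Ex/530Em on a Synergy 2. Inhibition was compared against DMSO vehicle controls, with chetomin as positive control.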

[4] = target: T2, His6-tagged p300 (AA 323-423) (UniProt Q09472 323-423); assay: TR-FRET HIF1a/p300 displacement; grade = IC50 >700 nM
T2 construct: range 323-423; also called p300-CH; not shown: His6 tag
Experimental: The ability of peptides to displace HIF1α c-terminal trans-activation domain from p300-CH was measured by a TR FRET assay. […] The complex was diluted to 300 nM final in complete assay media and competitor peptides were added. The complete assay media contained 150 mM NaCl (Sigma +S5150 or equivalent), 20 mM HEPES pH 7.4 (Boston Bioproducts, Ashland, Mass.; #BB-2076), 7.5 mM CHAPS (Thermo #28300 or equivalent), and 1 mM DTT. Protein and peptide were incubated at room temperature for 1 hour before the addition of anti-Flag-K and anti-6×HIS-D2 (CisBio, Bedford Mass.) HTRF reconstitution buffer (50 mM Phosphate pH 7, 0.8 Potassium Flouride, BSA 0.2%)¹ to a final concentration of 0.5 μM and 4 nM respectively. The reaction continued for an additional two hours at room temperature. The reaction was read on a TECAN F500 plate reader with settings recommended by CisBio. The ratio of donor to acceptor fluorescence was calculated. The resulting data was analyzed with Graphpad Prism 5.0. IC50 values were calculated for both proteins using the One Site Fit-LogIC50 equation and presented in the column “IC₅₀ (nM) (HIF1α_p300 Displacement+CHAPS)” of Table 6. ¹ Cisbio USA, Bedford, Mass.; 61HISDLB (lot 007A), 61FG2KLB (024A), HTRF Buffer (62RB3RDF)

T2 sequence (Q09472 323-423 limits assumed): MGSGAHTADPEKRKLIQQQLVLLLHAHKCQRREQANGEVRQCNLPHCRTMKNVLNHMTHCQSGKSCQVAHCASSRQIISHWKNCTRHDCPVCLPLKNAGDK

Molecule | IC50 [1] [nM] | Viability 1% FBS AVG (MTT V3-24 hr Normoxia) (μM) (HRE-bla ME-180 cells [2]) | 18 h Avg % max inhibition at top conc (HIF Rptr-24 hrs normoxia) (μM) (HRE-bla ME-180 cells [3]) | EC50 (HRE-bla ME-180 cells [3]) [µM] | IC50 [4] [nM]
CCCC[C@H](NC(=O)[C@H](CCC(=O)O)NC(=O)[C@]1(C)CCCC=CCCCCCC[C@@](C)(NC(=O)[C@H](CCC(=O)O)NC(=O)[C@H](CC(=O)O)NC(=O)[C@@H](NC(=O)[C@H](CC(N)=O)NC(=O)[C@@H](NC(=O)[C@H](CCC(N)=O)NC(=O)[C@]2(C)CCCC=CCCC[C@](C)(NC(=O)[C@H](CC(C)C)NC(=O)[C@H](CCC(=O)O)NC(=O)[C@H](C)NC(=O)CNC(=O)[C@H](CCC(N)=O)NC(=O)[C@H](CC(C)C)NC(=O)[C@H](CC(C)C)NC(C)=O)C(=O)N[C@@H](CCCNC(=N)N)C(=O)N[C@@H](C)C(=O)N[C@@H](CC(C)C)C(=O)N2)C(C)C)[C@@H](C)CC)C(=O)N[C@@H](C(C)C)C(=O)N[C@@H](CC(C)C)C(=O)N[C@@H](CCCC)C(=O)N[C@@H](CO)C(=O)N[C@@H](CC(C)C)C(=O)N[C@@H](C(C)C)C(=O)N1)C(N)=O [SP-360] (Ac-LLQGAEL[S5]RAL[S5]QVNIDE[R8]VL[Nle]SLV[S5]E[Nle]-NH2; staple 8-12, 19-26) | 200 to 400 | ++++ (≥30: ++++) | ++ (≤10 but <25: ++) | > 30 | –
CCCC[C@H](NC(=O)[C@H](CCC(=O)O)NC(=O)[C@@H](NC(=O)[C@@H](NC(=O)[C@H](CC(C)C)NC(=O)[C@]1(C)CCCC=CCCC[C@](C)(NC(=O)[C@H](CCC(=O)O)NC(=O)[C@H](CCCNC(=N)N)NC(=O)[C@@H](NC(=O)[C@H](Cc2ccccc2)NC(C)=O)[C@@H](C)CC)C(=O)N[C@@H](C(C)C)C(=O)N[C@@H](CC(C)C)C(=O)N[C@@H](CCCC)C(=O)N1)C(C)C)[C@@H](C)CC)C(=O)N[C@@H](C)C(=O)N[C@@H](CC(C)C)C(N)=O [SP-155] (Ac-FIRE[S5]VL[Nle][S5]LVIE[Nle]AL-NH2; staple 5-9) | > 700 | ++++ (≥30: ++++) | ++ (≤10 but <25: ++) | > 30 | –
CC[C@H](C)[C@H](NC(=O)[C@H](CCCNC(=N)N)NC(=O)[C@H](CC(=O)O)NC(=O)[C@H](CC(C)C)NC(=O)[C@H](C)NC(=O)[C@H](CCSC)NC(=O)[C@]1(C)CCCC=CCCC[C@](C)(NC(=O)[C@H](CCSC)NC(=O)[C@H](CC(C)C)NC(=O)[C@@H](NC(=O)[C@H](C)NC(=O)[C@H](CCC(N)=O)NC(=O)[C@H](CC(N)=O)NC(=O)[C@@H](NC(=O)[C@H](Cc2ccccc2)NC(C)=O)[C@@H](C)CC)C(C)C)C(=O)N[C@@H](CC(C)C)C(=O)N[C@@H](C(C)C)C(=O)N[C@@H]([C@@H](C)CC)C(=O)N1)C(N)=O [SP-271] (Ac-FINQAVLM[S5]LVI[S5]MALDRI-NH2; staple 9-13) | > 700 | ++++ (≥30: ++++) | +++ (≤25 but <50: +++) | > 30 | –
CCCC[C@H](NC(=O)[C@H](Cc1ccccc1)NC(=O)[C@@H](NC(=O)[C@H](C)NC(=O)[C@H](CCC(N)=O)NC(=O)[C@H](CC(=O)O)NC(=O)[C@@H](NC(=O)[C@H](Cc1ccccc1)NC(C)=O)[C@@H](C)CC)C(C)C)C(=O)N[C@@]1(C)CCCC=CCCC[C@@](C)(C(=O)N[C@@H](CCCC)C(=O)N[C@@H](C)C(=O)N[C@@H](CC(C)C)C(=O)N[C@@H](CC(C)C)C(N)=O)NC(=O)[C@H]([C@@H](C)CC)NC(=O)[C@H](C(C)C)NC(=O)[C@H](CC(N)=O)NC1=O [SP-251] (Ac-FIDQAVF[Nle][S5]NVI[S5][Nle]ALL-NH2; staple 9-13) | > 700 | + (<5: +) | ++++ (≥50: ++++) | ≤ 5 | –
CCCC[C@H](NC(=O)[C@H](CCC(=O)O)NC(=O)[C@@H](NC(=O)[C@@H](NC(=O)[C@H](CC(N)=O)NC(=O)[C@]1(C)CCCC=CCCC[C@](C)(NC(=O)[C@H](CCC(=O)O)NC(=O)[C@H](CC(=O)O)NC(=O)[C@@H](NC(=O)[C@H](Cc2ccccc2)NC(C)=O)[C@@H](C)CC)C(=O)N[C@@H](C(C)C)C(=O)N[C@@H](CC(C)C)C(=O)N[C@@H](CCCC)C(=O)N1)C(C)C)[C@@H](C)CC)C(=O)N[C@@H](C)C(=O)N[C@@H](CC(C)C)C(N)=O [SP-143] (Ac-FIDE[S5]VL[Nle][S5]NVIE[Nle]AL-NH2; staple 5-9) | 400 to 700 | ++ (≤5 but <15: ++) | ++++ (≥50: ++++) | 5 to 15 | –
CCCC[C@H](NC(=O)[C@H](CC(C)C)NC(=O)[C@@H](NC(=O)[C@H](CCC(=O)O)NC(=O)[C@H](CCC(=O)O)NC(=O)[C@H](CC(=O)O)NC(=O)[C@@H](NC(=O)[C@H](CC(N)=O)NC(=O)[C@@H](NC(=O)[C@H](CCC(N)=O)NC(=O)[C@H](CC(=O)O)NC(=O)[C@]1(C)CCCC=CCCCCCC[C@@](C)(NC(=O)[C@H](CCC(N)=O)NC(=O)[C@H](CC(C)C)NC(=O)[C@H](CC(C)C)NC(C)=O)C(=O)N[C@@H](CCC(=O)O)C(=O)N[C@@H](CCC(=O)O)C(=O)N[C@@H](CC(C)C)C(=O)N[C@@H](CC(C)C)C(=O)N[C@@H](CCCNC(=N)N)C(=O)N[C@@H](C)C(=O)N1)C(C)C)[C@@H](C)CC)C(C)C)C(=O)N[C@@]1(C)CCCC=CCCC[C@@](C)(C(=O)N[C@@H](CCCC)C(=O)NCC(N)=O)NC(=O)[C@H]([C@@H](C)CC)NC(=O)[C@H](C(C)C)NC(=O)[C@H](CC(C)C)NC1=O [SP-341] (Ac-LLQ[R8]EELLRA[S5]DQVNIDEEVL[Nle][S5]LVI[S5][Nle]G-NH2; staple 4-11, 23-27) | 200 to 400 | ++++ (≥30: ++++) | + (<10: +) | > 30 | –
CCCC[C@@H]1NC(=O)[C@H](CC(C)C)NC(=O)[C@](C)(NC(=O)[C@H](CCC(=O)O)NC(=O)[C@H](CCC(=O)O)NC(=O)[C@H](CC(=O)O)NC(=O)[C@@H](NC(=O)[C@H](CC(N)=O)NC(=O)[C@@H](NC(=O)[C@H](CCC(N)=O)NC(=O)[C@H](CC(=O)O)NC(=O)[C@H](CC(C)C)NC(=O)[C@]2(C)CCCC=CCCC[C@](C)(NC(=O)[C@H](CCC(=O)O)NC(=O)CNC(=O)[C@H](CCC(N)=O)NC(=O)[C@H](CC(C)C)NC(=O)[C@H](CC(C)C)NC(C)=O)C(=O)N[C@@H](CC(C)C)C(=O)N[C@@H](CC(C)C)C(=O)N[C@@H](CCCNC(=N)N)C(=O)N2)C(C)C)[C@@H](C)CC)CCCCCCC=CCCC[C@@](C)(C(=O)N[C@@H](CCCC)C(=O)NCC(N)=O)NC(=O)[C@H]([C@@H](C)CC)NC(=O)[C@H](C(C)C)NC(=O)[C@H](CC(C)C)NC(=O)[C@H](CO)NC1=O [SP-330] (Ac-LLQGE[S5]LLR[S5]LDQVNIDEE[R8]L[Nle]SLVI[S5][Nle]G-NH2; staple 6-10, 20-27) | > 700 | ++++ (≥30: ++++) | + (<10: +) | > 30 | –
B1 | – | – | – | – | > 700
